Measured values: article PMC6382696, “Drug Repurposing: The Anthelmintics Niclosamide and Nitazoxanide Are Potent TMEM16A Antagonists That Fully Bronchodilate Airways” (Frontiers in Pharmacology, 2019)
“Also recorded” adds a separate entry of the source.

How the values were obtained:
mouse tracheal rings [1] = assay: Bronchodilation of cytokine-treated mouse tracheal rings; conditions: overnight IL-1β, TNFα, IL-13 100 ng/ml, EC75 carbachol
Protocol: Airway rings were treated overnight in 2 ml DMEM + PSG/HEPES/AA/NaPyr buffer alone or with the same solution supplemented with 100 ng/ml of mTNFα, mIL-13 and mIL-1β. Unlike like the typical Wake-Up protocol and ring qualifying tests, mouse tracheal rings were not exposed to KPSS and rings were not observed to relax with a β-agonist following discovery of CCh dose-responses. After several washes with PSS, EC75 concentrations of CCh were used to pre-contract rings for >30 min alone or in the presence of cytokines.

mouse airway rings = assay: Duration of bronchodilation after washout and carbachol re-challenge, mouse airway rings; conditions: EC75 carbachol, preliminary
Protocol: Mouse airway rings were exposed to a typical Wake-Up procedure including the use of KPSS and discovery of EC75 CCh dose responses. However, no isoproterenol was used to observe tissue relaxation as part of the qualification procedure. With pre-contraction with EC75 CCh for >30 min, rings were subjected to a compound dose-response, followed by a complete washout of compound, and re-contracted with EC75 CCh. Traces were recorded for several hours thereafter and normalized to theophylline as control of 100% relaxation.

mouse tracheal rings [2] = assay: β-agonist use-dependent desensitization of mouse tracheal rings; conditions: add-on after isoproterenol round 2
Text: Standard procedures were used to prepare and mount tissues.

[3] = tested on: Wnt/β-catenin transcription; assay: Wnt/β-catenin transcription TOPFlash reporter assay; assay type: cell-based; conditions: Wnt TopFlash IC50 over TMEM16A eYFP IC50
[4] = tested on: primary human airway smooth muscle cells; assay: Methacholine-induced depolarization of primary human airway smooth muscle cells; assay type: cell-based; conditions: donor 199524, 20 M methacholine (so in the source), read-out: EC50 inhibition of methacholine-induced depolarization (converted)
Protocol: Cultured human bronchial smooth muscle cells (BSMC) from Lonza were resuspended in Smooth Muscle Growth Medium-2 (SmGM-2; Lonza) at a concentration of 4 × 10^5 cells per ml. One hundred microliters of cells per well were plated in a black wall clear bottom polystyrene 96-well tissue culture plate and incubated in a 37°C humidified incubator with 5% CO2 overnight. Cells were serum starved by removing the SmGM-2 and replaced with one hundred microliters per well of Smooth Muscle Cell Basal Medium 2 (SmBM-2), phenol red-free (PromoCell), and incubated in a 37°C humidified incubator with 5% CO2 for 24 h. SmBM-2 was replaced with 100 microliters of fresh SmBM-2. […] Using the FLIPR-Tetra (Molecular Devices), three measurements of the baseline fluorescence were taken over the span of 1 min. […] Fifty-five fluorescence measurements were taken over the span of 14 min. The area under the curve (AUC) from the fluorescence kinetic traces (normalized to baseline fluorescence) were calculated. The amount of fluorescence in the presence of compound compared with that in the presence of DMSO vehicle alone (HI control) was calculated using the formula: % control (POC) = (compd – average LO)/(average HI – average LO)^∗100. […]
Panels (B-D) show raw fluorescence data from the membrane potential assay of buffer alone (dashed line), buffer plus 20 µM methacholine […]
RFU = relative fluorescence units. […]

HT29 = tested on: HT29; parameters: method as in Li et al., 2014; conditions: ref Li et al., 2014, read-out: IC50 inhibition of proliferation; cited from earlier work
HCT116 = tested on: HCT116; parameters: method as in Li et al., 2014; conditions: ref Li et al., 2014, read-out: IC50 inhibition of proliferation; cited from earlier work
COLO205 = tested on: COLO205; parameters: method as in Li et al., 2014; conditions: ref Li et al., 2014, read-out: IC50 inhibition of proliferation; cited from earlier work

Row | Compound | bronchodilation of cytokine-treated airways (mouse tracheal rings [1]) | duration of bronchodilation after washout and re-challenge (mouse airway rings) | IC50 Ratio, Wnt/TMEM16A [3] | other results
1 | CCc1oc2ccccc2c1C(=O)c1cc(Br)c(O)c(Br)c1 [Benzbromarone] | fully bronchodilated | long lasting; also recorded: sustained bronchodilation lasting several hours | – | –
2 | COc1cc([N+](=O)[O-])ccc1NC(=O)c1cc(Cl)c2ccccc2c1O [Cpd 4] | – | – | – | % relaxation after add-on to desensitized ring (mouse tracheal rings [2]; EC50 carbachol): 98.9%; % relaxation after add-on to desensitized ring (mouse tracheal rings [2]; EC75 carbachol): 95.4%
3 | O=C(Nc1ccc(Cl)cc1)c1cc(Cl)ccc1O [Cpd 5] | – | – | 3.51 | –
4 | Oc1ccc(Cl)cc1Cc1cc(Cl)ccc1O [Dichlorophen] | – | – | – | EC50 [4]: 3700 nM
5 | O=C(Nc1ccc([N+](=O)[O-])cc1Cl)c1cc(Cl)ccc1O [Niclosamide] | fully bronchodilated | long lasting; also recorded: sustained bronchodilation lasting several hours | 2.62 | IC50 (HT29): 4170 nM; IC50 (HCT116): 370 nM; IC50 (COLO205): 980 nM
